Laboratory results published in ChEMBL document CHEMBL6109089, “Design, synthesis and optimization of Apcin analogues as Cdc20 inhibitors for triple-negative breast cancer therapy” (Eur J Med Chem, 2025).
pIC50: −log10 of the molar value.

Assays:
[1] = tested on: HeLa; experiment: cells; settings: Homo sapiens, 48 h
Description: Antiproliferative activity against human HeLa cells assessed as inhibition of cell growth measured after 48 hrs by CCK-8 method

[2] = Antiproliferative activity against rat H9c2 cells assessed as inhibition of cell growth measured after 48 hrs by CCK-8 method; assay type: toxicity, cell-based
[3] = tested on: SiHa; experiment: cells; settings: Homo sapiens, 48 h
Description: Antiproliferative activity against human SiHa cells assessed as inhibition of cell growth measured after 48 hrs by CCK-8 method

[4] = Antiproliferative activity against human HK-2 cells assessed as inhibition of cell growth measured after 48 hrs by CCK-8 method; assay type: toxicity, cell-based
[5] = tested on: MDA-MB-231; experiment: cells; settings: Homo sapiens, MDA-MB-231, 48 h
Description: Antiproliferative activity against human MDA-MB-231 cells assessed as inhibition of cell growth measured after 48 hrs by CCK-8 method

[6] = Antiproliferative activity against human MCF-10A cells assessed as inhibition of cell growth measured after 48 hrs by CCK-8 method; assay type: toxicity, cell-based
[7] = tested on: MCF7; experiment: cells; settings: Homo sapiens, MCF7, 48 h
Description: Antiproliferative activity against human MCF7 cells assessed as inhibition of cell growth measured after 48 hrs by CCK-8 method

[8] = tested on: MDA-MB-436; experiment: cells; settings: Homo sapiens, MDA-MB-436, 48 h
Description: Antiproliferative activity against human MDA-MB-436 cells assessed as inhibition of cell growth measured after 48 hrs by CCK-8 method

[9] = tested on: MDA-MB-435; experiment: Antiproliferative activity against human MDA-MB-435 cells measured after 3 days by CCK-8 method; settings: MDA-MB-435, 72 h
[10] = tested on: MDA-MB-231; experiment: Antiproliferative activity against human MDA-MB-231 cells measured after 3 days by CCK-8 method; settings: MDA-MB-231, 72 h

| Structure (SMILES) | pIC50 [1] | pIC50 [3] | pIC50 [5] | pIC50 [7] | pIC50 [8] | pIC50 [9] | pIC50 [10] | IC50 at 48 h [2] | IC50 at 48 h [4] | IC50 at 48 h [6] |
| --- | --- | --- | --- | --- | --- | --- | --- | --- | --- | --- |
| Cc1ncsc1-c1ccc(CNC(=O)[C@@H]2C[C@@H](O)CN2C(=O)[C@@H](NC(=O)CCOCCOCCOCCOCCOCCC(=O)NCCCOC(=O)NC(Nc2ncccn2)C(Cl)(Cl)Cl)C(C)(C)C)cc1 (some centres undefined) | – | – | – | – | – | 5.70 | 5.59 | – | – | – |
| Cc1ncc([N+](=O)[O-])n1CCOC(=O)NC(Nc1nc(N)cc(Cl)n1)C(Cl)(Cl)Cl (centres undefined) | 4.35 | 4.41 | < 4.00 | – | – | – | – | – | – | – |
| Cc1cc(N)nc(NC(NC(=O)OCCn2c([N+](=O)[O-])cnc2C)C(Cl)(Cl)Cl)n1 (centres undefined) | < 4.00 | < 4.00 | < 4.00 | – | – | – | – | – | – | – |

Continued, in another order:

| pIC50 [1] | pIC50 [3] | pIC50 [5] | pIC50 [7] | pIC50 [8] | pIC50 [9] | pIC50 [10] | Structure (SMILES) | IC50 at 48 h [2] | IC50 at 48 h [4] | IC50 at 48 h [6] |
| --- | --- | --- | --- | --- | --- | --- | --- | --- | --- | --- |
| 4.71 | 4.61 | 4.85 | 5.05 | 4.86 | – | – | Cc1ncc([N+](=O)[O-])n1CCOC(=O)NC(Nc1nc(Cl)cc(Nc2ccccc2)n1)C(Cl)(Cl)Cl (centres undefined) | 15.1 µM | 18.3 µM | 22.5 µM |
| 4.14 | 4.25 | 4.25 | – | – | – | – | CNc1cc(Cl)nc(NC(NC(=O)OCCn2c([N+](=O)[O-])cnc2C)C(Cl)(Cl)Cl)n1 (centres undefined) | – | – | – |
